Where two headings read alike, the source gives them in different places.
System: IL-1β production in PMA-differentiated THP-1 cells
Experiment: IL-1β production in PMA-differentiated THP-1 cells stimulated with gramicidin (hTHP-1 assay, 2% fetal bovine serum; Procedures 1-3)
Assay type: cell-based, human
Procedure: The following protocol is suitable for testing the activity of the compounds disclosed herein.
Procedure 1: IL-1β Production in PMA-Differentiated THP-1 Cells Stimulated with Gramicidin.
THP-1 cells were purchased from the American Type Culture Collection and sub-cultured according to instructions from the supplier. Cells were cultured in complete RPMI 1640 (containing 10% heat inactivated FBS, penicillin (100 units/ml) and streptomycin (100 μg/ml)), and maintained in log phase prior to experimental setup. Prior to the experiment, compounds were dissolved in dimethyl sulfoxide (DMSO) to generate a 30 mM stock. The compound stock was first pre-diluted in DMSO to 3, 0.34, 0.042 and 0.0083 mM intermediate concentrations and subsequently spotted using Echo550 liquid handler into an empty 384-well assay plate to achieve desired final concentration (e.g. 100, 33, 11, 3.7, 1.2, 0.41, 0.14, 0.046, 0.015, 0.0051, 0.0017 μM). DMSO was backfilled in the plate to achieve a final DMSO assay concentration of 0.37%. The plate was then sealed and stored at room temperature until required.
THP-1 cells were treated with PMA (Phorbol 12-myristate 13-acetate) (20 ng/ml) for 16-18 hours. On the day of the experiment the media was removed and adherent cells were detached with trypsin for 5 minutes. Cells were then harvested, washed with complete RPMI 1640, spun down, and resuspended in RPMI 1640 (containing 2% heat inactivated FBS, penicillin (100 units/ml) and streptomycin (100 μg/ml). The cells were plated in the 384-well assay plate containing the spotted compounds at a density of 50,000 cells/well (final assay volume 50 μl). Cells were incubated with compounds for 1 hour and then stimulated with gramicidin (5 μM) (Enzo) for 2 hours. Plates were then centrifuged at 340 g for 5 min. Cell free supernatant (40 μL) was collected using a 96-channel PlateMaster (Gilson) and the production of IL-1β was evaluated by HTRF (cisbio). The plates were incubated for 18 h at 4° C. and read using the preset HTRF program (donor emission at 620 nm, acceptor emission at 668 nm) of the SpectraMax i3x spectrophotometer (Molecular Devices, software SoftMax 6). A vehicle only control and a dose titration of CRID3 (100-0.0017 μM) were run concurrently with each experiment.
Procedure 2: IL-1β Production in PMA-Differentiated THP-1 Cells Stimulated with Gramicidin.
THP-1 cells were purchased from the American Type Culture Collection and sub-cultured according to instructions from the supplier. Prior to experiments, cells were cultured in complete RPMI 1640 (containing 10% heat inactivated FBS, penicillin (100 units/ml) and streptomycin (100 μg/ml)), and maintained in log phase prior to experimental setup. Prior to the experiment THP-1 were treated with PMA (Phorbol 12-myristate 13-acetate) (20 ng/ml) for 16-18 hours. Compounds were dissolved in dimethyl sulfoxide (DMSO) to generate a 30 mM stock. On the day of the experiment the media was removed and adherent cells were detached with trypsin for 5 minutes. Cells were then harvested, washed with complete RPMI 1640, spun down, resuspended in RPMI 1640 (containing 2% heat inactivated FBS, penicillin (100 units/ml) and streptomycin (100 μg/ml) . The cells were plated in a 384-well plate at a density of 50,000 cells/well (final assay volume 50 μl). Compounds were first dissolved in assay medium to obtain a 5× top concentration of 500 μM. 10 step dilutions (1:3) were then undertaken in assay medium containing 1.67% DMSO. 5× compound solutions were added to the culture medium to achieve desired final concentration (e.g. 100, 33, 11, 3.7, 1.2, 0.41, 0.14, 0.046, 0.015, 0.0051, 0.0017 μM). Final DMSO concentration was at 0.37%. Cells were incubated with compounds for 1 hour and then stimulated with gramicidin (5 μM) (Enzo) for 2 hours. Plates were then centrifuged at 340 g for 5 min. Cell free supernatant (40 μL) was collected using a 96-channel PlateMaster (Gilson) and the production of IL-1β was evaluated by HTRF (cisbio). […]

[1] = Homo sapiens, THP-1, Table B3, hTHP-1 assay containing 2% fetal bovine serum, gramicidin stimulation, IL-1β readout, read-out: hTHP-1 IC50
[2] = Table B3, hTHP-1 assay containing 2% fetal bovine serum, gramicidin stimulation, IL-1β readout, read-out: hTHP-1 IC50
[3] = hTHP-1 assay containing 2% fetal bovine serum, Table B2, class symbols, read-out: IC50
[4] = Homo sapiens, THP-1, hTHP-1 assay containing 2% fetal bovine serum, Table B2, class symbols, read-out: IC50
[5] = Table B1, hTHP-1 assay containing 2% fetal bovine serum, gramicidin stimulation, IL-1β readout, read-out: hTHP-1 IC50 (average)

## C#CCCC1(CCC(=O)N(C)Cc2ccc([S@@](N)(=O)=NC(=O)Nc3c4c(cc5c3CCC5)CCC4)cc2)N=N1 [compound 771]
[1]
  IC50: 200 to 1000 nM

## COC1CCc2c(csc2S(N)(=O)=NC(=O)Nc2c3c(cc4c2CCC4)CCC3)C1 (single isomer, unassigned) [Example 854, (S, S) or (R, S)-N′-((1,2,3,5,6,7-hexahydro-s-indacen-4-yl)carbamoyl)-5-methoxy-4,5,6,7-tetrahydrobenzo[c]thiophene-1-sulfonimidamide]
[2]
  IC50: 5000 to 30000 nM

## CNC(C)(C)c1ccc(S(N)(=O)=NC(=O)Nc2c3c(cc4c2CCC4)CCC3)c(F)c1 (single isomer, unassigned) [Example 592, (S) or (R)-2-fluoro-N′-((1,2,3,5,6,7-hexahydro-s-indacen-4-yl)carbamoyl)-4-(2-(methylamino)propan-2-yl) benzenesulfonimidamide]
[3]
  IC50: 5000 to 30000 nM

## CC(O)(CO)c1cc(F)c(S(N)(=O)=NC(=O)Nc2c3c(c(C#N)c4c2CCC4)CCC3)s1 [Example 631, (R,S) and (S,S)-N′-((8-cyano-1,2,3,5,6,7-hexahydro-s-indacen-4-yl)carbamoyl)-5-(1,2-dihydroxypropan-2-yl)-3-fluorothiophene-2-sulfonimidamide]
[3]
  IC50: 1000 to 5000 nM

## CN(C)CC(C)(C)c1ccc(S(N)(=O)=NC(=O)Nc2c3c(cc4c2CCC4)CCC3)cc1 (centres unmarked) [Example 764, 4-(1-(Dimethylamino)-2-methylpropan-2-yl)-N′-((1,2,3,5,6,7-hexahydro-s-indacen-4-yl)carbamoyl)benzenesulfonimidamide]
[1]
  IC50: 1000 to 5000 nM

## CC(C)(O)c1ncc(S(N)(=O)=NC(=O)Nc2cc3c(c4c2CCC4=O)CCC3)s1 (centres unmarked) [Example 435, 2-(2-hydroxypropan-2-yl)-N′-((1-oxo-1,2,3,6,7,8-hexahydro-as-indacen-4-yl)carbamoyl)thiazole-5-sulfonimidamide]
[4]
  IC50: 5000 to 30000 nM

## NS(=O)(=NC(=O)Nc1c2c(cc3c1CCC3)CCC2)c1sc(CNC2CCC2)cc1F (centres unmarked) [Compound 898]
[4]
  IC50: 200 to 1000 nM

## CNCc1csc(S(N)(=O)=NC(=O)Nc2c3c(cc4c2CC4)CCC3)c1 (single isomer, unassigned) [Example 837, (R) or (S)-4-((methylamino)methyl)-N′-((2,4,5,6-tetrahydro-1H-cyclobuta[f]inden-3-yl)carbamoyl)thiophene-2-sulfonimidamide]
[2]
  IC50: 40 to 200 nM

## COCCN(C)Cc1ccc(S(N)(=O)=NC(=O)Nc2c3c(cc4c2CCC4)CCC3)cc1 (single isomer, unassigned) [Example 390, (R) or (S)-N′-((1,2,3,5,6,7-hexahydro-s-indacen-4-yl)carbamoyl)-4-(((2-meth-oxyethyl)(methyl)amino)-methyl)benzenesulfonimid-amide]
[5]
  IC50: 1000 to 5000 nM

## CC(C)n1nc(S(N)(=O)=NC(=O)Nc2c3c(c(C#N)c4c2CCC4)CCC3)cc1CO (centres unmarked) [Example 442, N′-((8-cyano-1,2,3,5,6,7-hexahydro-s-indacen-4-yl)carbamoyl)-5-(hydroxymethyl)-1-isopropyl-1H-pyrazole-3-sulfonimidamide]
[4]
  IC50: 200 to 1000 nM

## CC(C)(CO)c1ncc([S@](N)(=O)=NC(=O)Nc2c3c(c(C#N)c4c2CCC4)CCC3)s1 [Compound 913b]
[4]
  IC50: 40 to 200 nM

## NS(=O)(=NC(=O)Nc1c2c(cc3c1CCC3)CCC2)c1ccc(C2CCCN2)cc1 (single isomer, unassigned) [Example 650, (R,S) or (S,S)-N′-((1,2,3,5,6,7-hexahydro-s-indacen-4-yl)carbamoyl)-4-(pyrrolidin-2-yl) benzenesulfonimidamide]
[3]
  IC50: 5000 to 30000 nM

## NS(=O)(=NC(=O)Nc1c2c(cc3c1CCC3)CCC2)c1ccc(-c2ccccc2CO)s1 (centres unmarked) [Example 728, N′-((1,2,3,5,6,7-hexahydro-s-indacen-4-yl)carbamoyl)-5-(2-(hydroxymethyl)phenyl)thiophene-2-sulfonimidamide]
[1]
  IC50: 200 to 1000 nM

## NS(=O)(=NC(=O)Nc1c2c(cc3c1CCC3)CCC2)c1cc2c(s1)CCOC2 (centres unmarked) [Example 758, N′-((1,2,3,5,6,7-hexahydro-s-indacen-4-yl)carbamoyl)-6,7-dihydro-4H-thieno[3,2-c]pyran-2-sulfonimidamide]
[1]
  IC50: 200 to 1000 nM

## CC(C)(O)c1sc(S(N)(=O)=NC(=O)Nc2c3c(cc4c2CCC4)CCC3)cc1-c1ccccc1 (centres unmarked) [Example 760, N′-((1,2,3,5,6,7-hexahydro-s-indacen-4-yl)carbamoyl)-5-(2-hydroxypropan-2-yl)-4-phenylthiophene-2-sulfonimidamide]
[1]
  IC50: 200 to 1000 nM

## CN1CCc2sc(S(N)(=O)=NC(=O)Nc3c4c(cc5c3CC5)CCC4)c(F)c2C1 (centres unmarked) [Example 769, 3-Fluoro-5-methyl-N′-((2,4,5,6-tetrahydro-1H-cyclobuta[f]inden-3-yl)carbamoyl)-4,5,6,7-tetrahydrothieno[3,2-c]pyridine-2-sulfonimidamide]
[1]
  IC50: 40 to 200 nM

## C[C@@](O)(CO)c1ncc(S(N)(=O)=NC(=O)Nc2c3c(cc4c2CC4)CCC3)s1 (single isomer, unassigned) [Example 818, (S) or (R)-2-((R)-1,2-dihydroxypropan-2-yl)-N′-((2,4,5,6-tetrahydro-1H-cyclobuta[f]inden-3-yl)carbamoyl)thiazole-5-sulfonimidamide]
[2]
  IC50: 200 to 1000 nM

## CC(C)N(C)c1ccc(S(N)(=O)=NC(=O)Nc2c3c(cc4c2CCC4)CCC3)cc1 (single isomer, unassigned) [Example 615, (R) or (S)-N′-((1,2,3,5,6,7-hexahydro-s-indacen-4-yl)carbamoyl)-4-(isopropyl(methyl)amino) benzenesulfonimidamide]
[4]
  IC50: 5000 to 30000 nM

## COC1CCc2csc(S(N)(=O)=NC(=O)Nc3c4c(cc5c3CCC5)CCC4)c2C1 (single isomer, unassigned) [Example 857, (R, R) or (S, R)-N′-((1,2,3,5,6,7-hexahydro-s-indacen-4-yl)carbamoyl)-6-methoxy-4,5,6,7-tetrahydrobenzo[c]thiophene-1-sulfonimidamide]
[2]
  IC50: 1000 to 5000 nM

## CNS(=O)(=NC(=O)Nc1c2c(cc3c1CCC3)CCC2)c1cnc(C(C)(C)O)s1 (centres unmarked) [Example 247, N′-((1,2,3,5,6,7-hexahydro-s-indacen-4-yl)carbamoyl)-2-(2-hydroxypropan-2-yl)-N-methylthiazole-5-sulfon-imidamide]
[5]
  IC50: 5000 to 30000 nM

## N[S@@](=O)(=NC(=O)Nc1c2c(cc3c1CCC3)CCC2)c1ccc([C@H]2CCCN2)s1 [Compound 921a]
[4]
  IC50: 5000 to 30000 nM

## C[C@](O)(COCCO)c1ccc([S@@](N)(=O)=NC(=O)Nc2c3c(cc4c2CCC4)CCC3)s1 [Example 748, (S)-N′-((1,2,3,5,6,7-hexahydro-s-indacen-4-yl)carbamoyl)-5-((S)-2-hydroxy-1-(2-hydroxyethoxy)propan-2-yl)thiophene-2-sulfonimidamide]
[1]
  IC50: 40 to 200 nM

## CO[C@H]1COc2c(S(N)(=O)=NC(=O)Nc3c4c(cc5c3CCC5)CCC4)cnn2C1 (single isomer, unassigned) [Example 696, (S) or (R)-(6R)-N′-((1,2,3,5,6,7-hexahydro-s-indacen-4-yl)carbamoyl)-6-methoxy-6,7-dihydro-5H-pyrazolo[5,1-b][1,3]oxazine-3-sulfonimidamide]
[3]
  IC50: 200 to 1000 nM

Source: patent publication US20230051589A1, “COMPOUNDS AND COMPOSITIONS FOR TREATING CONDITIONS ASSOCIATED WITH NLRP ACTIVITY” (Novartis AG, priority 2018, published 2023)
